Measured values published in US8580794B2 (AbbVie Inc., priority 2009, dated 2013).

Target: GST-Bc1-2 (Homo sapiens, UniProt P10415)
Assay: Time Resolved-Fluorescence Resonance Energy Transfer (TR-FRET) Bcl-2 binding assay with F-Bak peptide probe
Conditions: GST-Bcl-2 1 nM, F-Bak probe 100 nM, Tb-anti-GST 1 nM; '<' = below limit of detection; read-out: TR-FRET Bcl-2 Binding Ki

Chain of GST-Bc1-2 (P10415 whole entry): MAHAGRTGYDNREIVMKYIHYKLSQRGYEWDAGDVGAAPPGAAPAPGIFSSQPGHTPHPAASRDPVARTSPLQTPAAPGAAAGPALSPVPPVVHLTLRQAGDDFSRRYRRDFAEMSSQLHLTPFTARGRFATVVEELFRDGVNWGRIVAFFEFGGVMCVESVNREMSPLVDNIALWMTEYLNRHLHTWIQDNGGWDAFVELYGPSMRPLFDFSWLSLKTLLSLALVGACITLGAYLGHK

Row | SMILES | Ki [nM]
1 | CC1(C)CCC(CN2CCN(c3ccc(C(=O)NS(=O)(=O)c4ccc(N[C@@H]5CCN(CC(F)F)C5)c([N+](=O)[O-])c4)c(Oc4cnc5[nH]ccc5c4)c3)CC2)=C(c2ccc(Cl)cc2)C1 [Example 180, 4-(4-{[2-(4-chlorophenyl)-4,4-dimethylcyclohex-1-en-1-yl]methyl}piperazin-1-yl)-N-[(4-{[(3R)-1-(2,2-difluoroethyl)pyrrolidin-3-yl]amino}-3-nitrophenyl)sulfonyl]-2-(1H-pyrrolo[2,3-b]pyridin-5-yloxy)benzamide] | < 0.01
2 | CC1(C)CCC(CN2CCN(c3ccc(C(=O)NS(=O)(=O)c4ccc(N[C@H]5CCN(CCF)C5)c([N+](=O)[O-])c4)c(Oc4cnc5[nH]ccc5c4)c3)CC2)=C(c2ccc(Cl)cc2)C1 [Example 181, 4-(4-{[2-(4-chlorophenyl)-4,4-dimethylcyclohex-1-en-1-yl]methyl}piperazin-1-yl)-N-[(4-{[(3S)-1-(2-fluoroethyl)pyrrolidin-3-yl]amino}-3-nitrophenyl)sulfonyl]-2-(1H-pyrrolo[2,3-b]pyridin-5-yloxy)benzamide] | 0.017
3 | CC1(C)CCC(CN2CCN(c3ccc(C(=O)NS(=O)(=O)c4ccc(N[C@H]5CCN(CC(F)F)C5)c([N+](=O)[O-])c4)c(Oc4cnc5[nH]ccc5c4)c3)CC2)=C(c2ccc(Cl)cc2)C1 [Example 182, 4-(4-{[2-(4-chlorophenyl)-4,4-dimethylcyclohex-1-en-1-yl]methyl}piperazin-1-yl)-N-[(4-{[(3S)-1-(2,2-difluoroethyl)pyrrolidin-3-yl]amino}-3-nitrophenyl)sulfonyl]-2-(1H-pyrrolo[2,3-b]pyridin-5-yloxy)benzamide] | 0.068
4 | CC1(C)CCC(CN2CCN(c3ccc(C(=O)NS(=O)(=O)c4ccc(NCc5ccc(O)cc5)c([N+](=O)[O-])c4)c(Oc4cnc5[nH]ccc5c4)c3)CC2)=C(c2ccc(Cl)cc2)C1 [Example 185, 4-(4-{[2-(4-chlorophenyl)-4,4-dimethylcyclohex-1-en-1-yl]methyl}piperazin-1-yl)-N-({4-[(4-hydroxybenzyl)amino]-3-nitrophenyl}sulfonyl)-2-(1H-pyrrolo[2,3-b]pyridin-5-yloxy)benzamide] | 0.022
5 | CC1(C)CCC(CN2CCN(c3ccc(C(=O)NS(=O)(=O)c4ccc(NCc5cccc(O)c5)c([N+](=O)[O-])c4)c(Oc4cnc5[nH]ccc5c4)c3)CC2)=C(c2ccc(Cl)cc2)C1 [Example 186, 4-(4-{[2-(4-chlorophenyl)-4,4-dimethylcyclohex-1-en-1-yl]methyl}piperazin-1-yl)-N-({4-[(3-hydroxybenzyl)amino]-3-nitrophenyl}sulfonyl)-2-(1H-pyrrolo[2,3-b]pyridin-5-yloxy)benzamide] | 0.047
6 | CC1(C)CCC(CN2CCN(c3ccc(C(=O)NS(=O)(=O)c4ccc(NCc5cccc(OC(F)F)c5)c([N+](=O)[O-])c4)c(Oc4cnc5[nH]ccc5c4)c3)CC2)=C(c2ccc(Cl)cc2)C1 [Example 187, 4-(4-{[2-(4-chlorophenyl)-4,4-dimethylcyclohex-1-en-1-yl]methyl}piperazin-1-yl)-N-[(4-{[3-(difluoromethoxy)benzyl]amino}-3-nitrophenyl)sulfonyl]-2-(1H-pyrrolo[2,3-b]pyridin-5-yloxy)benzamide] | 0.08
7 | CC1(C)CCC(CN2CCN(c3ccc(C(=O)NS(=O)(=O)c4ccc(NC5CCN(C6CC6)CC5)c(S(=O)(=O)C(F)(F)F)c4)c(Oc4cnc5[nH]ccc5c4)c3)CC2)=C(c2ccc(Cl)cc2)C1 [Example 190, 4-(4-{[2-(4-chlorophenyl)-4,4-dimethylcyclohex-1-en-1-yl]methyl}piperazin-1-yl)-N-({4-[(1-cyclopropylpiperidin-4-yl)amino]-3-[(trifluoromethyl)sulfonyl]phenyl}sulfonyl)-2-(1H-pyrrolo[2,3-b]pyridin-5-yloxy)benzamide] | 0.026
8 | CC1(C)CCC(CN2CCN(c3ccc(C(=O)NS(=O)(=O)c4ccc(OCC5(F)CCN(C6CCOCC6)CC5)c([N+](=O)[O-])c4)c(Oc4cnc5[nH]ccc5c4)c3)CC2)=C(c2ccc(Cl)cc2)C1 [Example 192, 4-(4-{[2-(4-chlorophenyl)-4,4-dimethylcyclohex-1-en-1-yl]methyl}piperazin-1-yl)-N-({4-[(4-fluoro-1-tetrahydro-2H-pyran-4-ylpiperidin-4-yl)methoxy]-3-nitrophenyl}sulfonyl)-2-(1H-pyrrolo[2,3-b]pyridin-5-yloxy)benzamide] | < 0.01
9 | CC1(C)CCC(CN2CCN(c3ccc(C(=O)NS(=O)(=O)c4ccc(OCC5(F)CCN(C6CCOC6)CC5)c([N+](=O)[O-])c4)c(Oc4cnc5[nH]ccc5c4)c3)CC2)=C(c2ccc(Cl)cc2)C1 (stereo not drawn) [Example 193, 4-(4-{[2-(4-chlorophenyl)-4,4-dimethylcyclohex-1-en-1-yl]methyl}piperazin-1-yl)-N-({4-[(4-fluoro-1-tetrahydrofuran-3-ylpiperidin-4-yl)methoxy]-3-nitrophenyl}sulfonyl)-2-(1H-pyrrolo[2,3-b]pyridin-5-yloxy)benzamide] | < 0.01
10 | CC1(C)CCC(CN2CCN(c3ccc(C(=O)NS(=O)(=O)c4ccc(OCC5(F)CCN(S(C)(=O)=O)CC5)c([N+](=O)[O-])c4)c(Oc4cnc5[nH]ccc5c4)c3)CC2)=C(c2ccc(Cl)cc2)C1 [Example 194, 4-(4-{[2-(4-chlorophenyl)-4,4-dimethylcyclohex-1-en-1-yl]methyl}piperazin-1-yl)-N-[(4-{[4-fluoro-1-(methylsulfonyl)piperidin-4-yl]methoxy}-3-nitrophenyl)sulfonyl]-2-(1H-pyrrolo[2,3-b]pyridin-5-yloxy)benzamide] | < 0.01
11 | CC1(C)CCC(CN2CCN(c3ccc(C(=O)NS(=O)(=O)c4ccc(NC[C@H]5CCN(C6COC6)C5)c([N+](=O)[O-])c4)c(Oc4cnc5[nH]ccc5c4)c3)CC2)=C(c2ccc(Cl)cc2)C1 [Example 195, 4-(4-{[2-(4-chlorophenyl)-4,4-dimethylcyclohex-1-en-1-yl]methyl}piperazin-1-yl)-N-{[3-nitro-4-({[(3R)-1-oxetan-3-ylpyrrolidin-3-yl]methyl}amino)phenyl]sulfonyl}-2-(1H-pyrrolo[2,3-b]pyridin-5-yloxy)benzamide] | < 0.01
12 | CN(C)CCCOc1ccc(CNc2ccc(S(=O)(=O)NC(=O)c3ccc(N4CCN(CC5=C(c6ccc(Cl)cc6)CC(C)(C)CC5)CC4)cc3Oc3cnc4[nH]ccc4c3)cc2[N+](=O)[O-])cc1 [Example 197, 4-(4-{[2-(4-chlorophenyl)-4,4-dimethylcyclohex-1-en-1-yl]methyl}piperazin-1-yl)-N-{[4-({4-[3-(dimethylamino)propoxy]benzyl}amino)-3-nitrophenyl]sulfonyl}-2-(1H-pyrrolo[2,3-b]pyridin-5-yloxy)benzamide] | < 0.01
13 | CC1(C)CCC(CN2CCN(c3ccc(C(=O)NS(=O)(=O)c4ccc(NCc5ccc(OCCN6CCOCC6)cc5)c([N+](=O)[O-])c4)c(Oc4cnc5[nH]ccc5c4)c3)CC2)=C(c2ccc(Cl)cc2)C1 [Example 198, 4-(4-{[2-(4-chlorophenyl)-4,4-dimethylcyclohex-1-en-1-yl]methyl}piperazin-1-yl)-N-[(4-{[4-(2-morpholin-4-ylethoxy)benzyl]amino}-3-nitrophenyl)sulfonyl]-2-(1H-pyrrolo[2,3-b]pyridin-5-yloxy)benzamide] | < 0.01
14 | CC1(C)CCC(CN2CCN(c3ccc(C(=O)NS(=O)(=O)c4ccc(NCC56CC7CC(C5)C(O)C(C7)C6)c([N+](=O)[O-])c4)c(Oc4cnc5[nH]ccc5c4)c3)CC2)=C(c2ccc(Cl)cc2)C1 (stereo not drawn) [Example 199, 4-(4-{[2-(4-chlorophenyl)-4,4-dimethylcyclohex-1-en-1-yl]methyl}piperazin-1-yl)-N-{[4-({[(E)-4-hydroxy-1-adamantyl]methyl}amino)-3-nitrophenyl]sulfonyl}-2-(1H-pyrrolo[2,3-b]pyridin-5-yloxy)benzamide] | < 0.01
15 | CC1(C)CCC(CN2CCN(c3ccc(C(=O)NS(=O)(=O)c4ccc(NCC56CC7CC(C5)C(O)C(C7)C6)c([N+](=O)[O-])c4)c(Oc4cnc5[nH]ccc5c4)c3)CC2)=C(c2ccc(Cl)cc2)C1 (stereo not drawn) [Example 200, 4-(4-{[2-(4-chlorophenyl)-4,4-dimethylcyclohex-1-en-1-yl]methyl}piperazin-1-yl)-N-{[4-({[(Z)-4-hydroxy-1-adamantyl]methyl}amino)-3-nitrophenyl]sulfonyl}-2-(1H-pyrrolo[2,3-b]pyridin-5-yloxy)benzamide] | < 0.01
16 | CC1(C)CCC(CN2CCN(c3ccc(C(=O)NS(=O)(=O)c4ccc(OCC5C[C@H]6C=C[C@@H]5C6)c([N+](=O)[O-])c4)c(Oc4cnc5[nH]ccc5c4)c3)CC2)=C(c2ccc(Cl)cc2)C1 (stereo partly drawn) [Example 201, N-({4-[(1S,4S)-bicyclo[2.2.1]hept-5-en-2-ylmethoxy]-3-nitrophenyl}sulfonyl)-4-(4-{[2-(4-chlorophenyl)-4,4-dimethylcyclohex-1-en-1-yl]methyl}piperazin-1-yl)-2-(1H-pyrrolo[2,3-b]pyridin-5-yloxy)benzamide] | 0.014
17 | CN1CC(Nc2ccc(S(=O)(=O)NC(=O)c3ccc(N4CCN(CC5=C(c6ccc(Cl)cc6)CC(C)(C)CC5)CC4)cc3Oc3cnc4[nH]ccc4c3)cc2[N+](=O)[O-])CC1=O (stereo not drawn) [Example 202, 4-(4-{[2-(4-chlorophenyl)-4,4-dimethylcyclohex-1-en-1-yl]methyl}piperazin-1-yl)-N-({4-[(1-methyl-5-oxopyrrolidin-3-yl)amino]-3-nitrophenyl}sulfonyl)-2-(1H-pyrrolo[2,3-b]pyridin-5-yloxy)benzamide] | < 0.01
18 | CC1(C)CCC(CN2CCN(c3ccc(C(=O)NS(=O)(=O)c4ccc(OCC5CCCC(=O)C5)c([N+](=O)[O-])c4)c(Oc4cnc5[nH]ccc5c4)c3)CC2)=C(c2ccc(Cl)cc2)C1 (stereo not drawn) [Example 205, 4-(4-{[2-(4-chlorophenyl)-4,4-dimethylcyclohex-1-en-1-yl]methyl}piperazin-1-yl)-N-({3-nitro-4-[(3-oxocyclohexyl)methoxy]phenyl}sulfonyl)-2-(1H-pyrrolo[2,3-b]pyridin-5-yloxy)benzamide] | < 0.01
